Results reported in the supplement of paper PMC10307832.

Assays:
Assay in all cases: relative viability (nuclei count vs DMSO), 5 days (fraction); higher = more cells survive
NCI-H2228 = test system: NCI-H2228
Method in brief: (§1)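 One day after seeding in 1536-well plates, lung cancer cell lines were dosed by pin tool. Dosing was either single-drug or a fixed anchor-drug dose plus five library-drug doses (not always all listed) in √10 steps. After 5 days, nuclei were stained in one fix-and-stain step and counted on 4× images, and relative viability is the nuclei count of treated wells over that of vehicle wells, given as the median of duplicate plates.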

NCI-H1395 = test system: NCI-H1395
Method in brief: as §1

NCI-H1793 = test system: NCI-H1793
Method in brief: as §1

BEN = test system: BEN
Method in brief: as §1

NCI-H647 = test system: NCI-H647
Method in brief: as §1

NCI-H1437 = test system: NCI-H1437
Method in brief: as §1

LXF-289 = test system: LXF-289
Method in brief: as §1

LCLC-97TM1 = test system: LCLC-97TM1
Method in brief: as §1

NCI-H1792 = test system: NCI-H1792
Method in brief: as §1

RERF-LC-KJ = test system: RERF-LC-KJ
Method in brief: as §1

NCI-H322M = test system: NCI-H322M
Method in brief: as §1

HCC-827 = test system: HCC-827
Method in brief: as §1

NCI-H2405 = test system: NCI-H2405
Method in brief: as §1

NCI-H1650 = test system: NCI-H1650
Method in brief: as §1

201T = test system: 201T
Method in brief: as §1

NCI-H2087 = test system: NCI-H2087
Method in brief: as §1

SK-LU-1 = test system: SK-LU-1
Method in brief: as §1

LCLC-103H = test system: LCLC-103H
Method in brief: as §1

NCI-H1944 = test system: NCI-H1944
Method in brief: as §1

NCI-H3122 = test system: NCI-H3122
Method in brief: as §1

CAL-12T = test system: CAL-12T
Method in brief: as §1

O=c1cc(N2CCOCC2)oc2c(-c3cccc4c3sc3ccccc34)cccc12 + Nc1nc2[nH]cc(CCc3ccc(C(=O)N[C@@H](CCC(=O)O)C(=O)O)cc3)c2c(=O)[nH]1 [Pemetrexed] (partner 0.2 µM)
relative viability (NCI-H2228; first compound 0.01 µM): 0.342 | relative viability (NCI-H2228; first compound 0.03162 µM): 0.356 | relative viability (NCI-H2228; first compound 0.1 µM): 0.396 | relative viability (NCI-H2228; first compound 0.3162 µM): 0.356 | relative viability (NCI-H2228; first compound 1 µM): 0.355 | relative viability (NCI-H1395; first compound 0.03162 µM): 0.908 | relative viability (NCI-H1395; first compound 0.1 µM): 0.909 | relative viability (NCI-H1395; first compound 0.3162 µM): 1.01 | relative viability (NCI-H1395; first compound 1 µM): 0.855 | relative viability (NCI-H1793; first compound 0.01 µM): 0.776 | relative viability (NCI-H1793; first compound 0.03162 µM): 0.728 | relative viability (NCI-H1793; first compound 0.1 µM): 1.01 | relative viability (NCI-H1793; first compound 0.3162 µM): 0.961 | relative viability (NCI-H1793; first compound 1 µM): 0.74 | relative viability (BEN; first compound 0.01 µM): 0.79 | relative viability (BEN; first compound 0.03162 µM): 0.746 | relative viability (BEN; first compound 0.1 µM): 0.653 | relative viability (BEN; first compound 0.3162 µM): 0.89 | relative viability (BEN; first compound 1 µM): 0.705 | relative viability (NCI-H647; first compound 0.01 µM): 0.187 | relative viability (NCI-H647; first compound 0.03162 µM): 0.183 | relative viability (NCI-H647; first compound 0.1 µM): 0.184 | relative viability (NCI-H647; first compound 0.3162 µM): 0.209 | relative viability (NCI-H647; first compound 1 µM): 0.178 | relative viability (NCI-H1437; first compound 0.01 µM): 0.327 | relative viability (NCI-H1437; first compound 0.03162 µM): 0.292 | relative viability (NCI-H1437; first compound 0.1 µM): 0.313 | relative viability (NCI-H1437; first compound 0.3162 µM): 0.314 | relative viability (NCI-H1437; first compound 1 µM): 0.314 | relative viability (LXF-289; first compound 0.01 µM): 0.879 | relative viability (LXF-289; first compound 0.03162 µM): 0.925 | relative viability (LXF-289; first compound 0.1 µM): 0.913 | relative viability (LXF-289; first compound 0.3162 µM): 0.864 | relative viability (LXF-289; first compound 1 µM): 0.963 | relative viability (LCLC-97TM1; first compound 0.01 µM): 0.189 | relative viability (LCLC-97TM1; first compound 0.03162 µM): 0.162 | relative viability (LCLC-97TM1; first compound 0.1 µM): 0.202 | relative viability (LCLC-97TM1; first compound 0.3162 µM): 0.162 | relative viability (LCLC-97TM1; first compound 1 µM): 0.177 | relative viability (NCI-H1792; first compound 0.01 µM): 0.835 | relative viability (NCI-H1792; first compound 0.03162 µM): 0.901 | relative viability (NCI-H1792; first compound 0.3162 µM): 0.836 | relative viability (NCI-H1792; first compound 1 µM): 0.759 | relative viability (RERF-LC-KJ; first compound 0.01 µM): 0.474 | relative viability (RERF-LC-KJ; first compound 0.03162 µM): 0.478 | relative viability (RERF-LC-KJ; first compound 0.1 µM): 0.492 | relative viability (RERF-LC-KJ; first compound 0.3162 µM): 0.489 | relative viability (RERF-LC-KJ; first compound 1 µM): 0.423 | relative viability (NCI-H322M; first compound 0.01 µM): 0.611 | relative viability (NCI-H322M; first compound 0.03162 µM): 0.613 | relative viability (NCI-H322M; first compound 0.3162 µM): 0.617 | relative viability (NCI-H322M; first compound 1 µM): 0.61 | relative viability (HCC-827; first compound 0.01 µM): 0.264 | relative viability (HCC-827; first compound 0.03162 µM): 0.254 | relative viability (HCC-827; first compound 0.1 µM): 0.295 | relative viability (HCC-827; first compound 0.3162 µM): 0.271 | relative viability (HCC-827; first compound 1 µM): 0.3 | relative viability (NCI-H2405; first compound 0.01 µM): 1.02 | relative viability (NCI-H2405; first compound 0.03162 µM): 1.18 | relative viability (NCI-H2405; first compound 0.1 µM): 0.943 | relative viability (NCI-H2405; first compound 0.3162 µM): 1.11 | relative viability (NCI-H2405; first compound 1 µM): 1.09 | relative viability (NCI-H1650; first compound 0.01 µM): 0.397 | relative viability (NCI-H1650; first compound 0.03162 µM): 0.374 | relative viability (NCI-H1650; first compound 0.1 µM): 0.35 | relative viability (NCI-H1650; first compound 0.3162 µM): 0.341 | relative viability (NCI-H1650; first compound 1 µM): 0.34 | relative viability (201T; first compound 0.01 µM): 0.326 | relative viability (201T; first compound 0.03162 µM): 0.316 | relative viability (201T; first compound 0.1 µM): 0.338 | relative viability (201T; first compound 0.3162 µM): 0.397 | relative viability (201T; first compound 1 µM): 0.359 | relative viability (NCI-H2087; first compound 0.01 µM): 0.665 | relative viability (NCI-H2087; first compound 0.03162 µM): 0.633 | relative viability (NCI-H2087; first compound 0.1 µM): 0.693 | relative viability (NCI-H2087; first compound 0.3162 µM): 0.662 | relative viability (NCI-H2087; first compound 1 µM): 0.651 | relative viability (SK-LU-1; first compound 0.01 µM): 0.963 | relative viability (SK-LU-1; first compound 0.03162 µM): 0.975 | relative viability (SK-LU-1; first compound 0.1 µM): 1.02 | relative viability (SK-LU-1; first compound 0.3162 µM): 1 | relative viability (SK-LU-1; first compound 1 µM): 0.953 | relative viability (LCLC-103H; first compound 0.01 µM): 0.44 | relative viability (LCLC-103H; first compound 0.03162 µM): 0.503 | relative viability (LCLC-103H; first compound 0.1 µM): 0.485 | relative viability (LCLC-103H; first compound 0.3162 µM): 0.465 | relative viability (LCLC-103H; first compound 1 µM): 0.457 | relative viability (NCI-H1944; first compound 0.01 µM): 0.691 | relative viability (NCI-H1944; first compound 0.03162 µM): 0.674 | relative viability (NCI-H1944; first compound 0.1 µM): 0.624 | relative viability (NCI-H1944; first compound 0.3162 µM): 0.589 | relative viability (NCI-H1944; first compound 1 µM): 0.635 | relative viability (NCI-H3122; first compound 0.01 µM): 0.207 | relative viability (NCI-H3122; first compound 0.03162 µM): 0.206 | relative viability (NCI-H3122; first compound 0.1 µM): 0.197 | relative viability (NCI-H3122; first compound 0.3162 µM): 0.21 | relative viability (NCI-H3122; first compound 1 µM): 0.205 | relative viability (CAL-12T; first compound 0.01 µM): 1.15 | relative viability (CAL-12T; first compound 0.03162 µM): 1.16 | relative viability (CAL-12T; first compound 0.1 µM): 1.29 | relative viability (CAL-12T; first compound 0.3162 µM): 1.13 | relative viability (CAL-12T; first compound 1 µM): 1.09
